From publication PMC5601737, “Potential independent action of sigma receptor ligands through inhibition of the Kv2.1 channel” (Oncotarget, 2017)

Molecular target: T1, Kv2.1 (Rattus norvegicus, UniProt P15387)
T1 construct: gene Kcnb1
T1 sequence (P15387 1-857): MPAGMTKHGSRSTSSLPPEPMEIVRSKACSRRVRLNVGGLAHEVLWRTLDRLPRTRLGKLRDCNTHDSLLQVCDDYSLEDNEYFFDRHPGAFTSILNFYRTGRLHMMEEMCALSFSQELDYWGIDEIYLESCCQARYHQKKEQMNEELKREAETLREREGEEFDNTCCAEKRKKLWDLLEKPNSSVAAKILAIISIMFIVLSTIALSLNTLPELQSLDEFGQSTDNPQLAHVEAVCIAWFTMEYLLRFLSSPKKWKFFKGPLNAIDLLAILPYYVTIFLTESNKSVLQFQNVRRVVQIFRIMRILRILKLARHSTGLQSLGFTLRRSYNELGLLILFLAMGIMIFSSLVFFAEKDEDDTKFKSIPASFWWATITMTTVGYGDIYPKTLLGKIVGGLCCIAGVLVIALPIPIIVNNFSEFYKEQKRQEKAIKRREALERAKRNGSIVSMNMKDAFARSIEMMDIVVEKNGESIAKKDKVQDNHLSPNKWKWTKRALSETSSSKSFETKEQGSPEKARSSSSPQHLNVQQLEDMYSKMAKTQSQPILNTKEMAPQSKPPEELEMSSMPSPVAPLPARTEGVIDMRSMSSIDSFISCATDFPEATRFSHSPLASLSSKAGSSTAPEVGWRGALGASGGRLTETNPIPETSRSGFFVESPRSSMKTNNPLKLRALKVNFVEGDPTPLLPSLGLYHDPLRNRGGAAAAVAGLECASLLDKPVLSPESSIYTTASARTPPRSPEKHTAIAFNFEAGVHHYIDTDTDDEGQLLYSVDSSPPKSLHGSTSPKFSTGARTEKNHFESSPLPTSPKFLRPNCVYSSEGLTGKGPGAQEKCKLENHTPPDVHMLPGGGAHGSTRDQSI
Assay: whole-cell patch clamp, HEK293 stably expressing Kv2.[…], sigma-1 receptor knockout; […] inhibition at […]
Assay type: cell-based

- inhibition at 10 µM: 65%
SMILES: COc1cccc2c1CCCC2CCCN1CCN(C2CCCCC2)CC1 (stereo not shown) [PB28]
